Reference: US7144551B2, “Mold remediation system and method” (DH Technologies, L.L.P., priority 2002, dated 2006)
Where two headings read alike, the source gives them in different places.

How the values were obtained:
mold = experiment: Mold remediation study: vapor from acidified 600 ppm NaOCl in a closed 1400 cc container; type: cell-based; details: 10 ml acidified 600 ppm NaOCl in 1400 cc; all NaOCl assumed converted to HOCl
Experimental: For purposes of the calculation which now follows, it is assumed that essentially all of the NaOCl is converted to HOCl when acidified, which is a valid assumption given the equilibrium of the reaction. For mold remediation studies, 10 ml of acidified 600 ppm NaOCl was placed in a container with a volume of 1400 cc. • 10 ml of 600 ppm NaOCl=0.00600 g NaOCl/10 ml • 0.00600 g NaOCl=(0.00600 g NaOCl)(52.5 g HOCl)/(74.5 g NaOCl)=0.00423 g HOCl This quantity is diluted to 1400 cc. Therefore, the maximum concentration of HOCl gas in the container studied is: • 0.00423 g/1400 cc=3.02×10^−6 g HOCl/cc. […] Thus, we have discovered that by converting the NaOCl to HOCl and using it in the form of a gas the concentration needed for mold cidal activity is at least about 47 times less than is recommended for sanitation in the liquid form of hypochlorite bleach! We next investigated the removal of mold stain from surfaces.

mold and mold stains = experiment: Mold kill and mold stain removal study: vapor from acidified 6.0% NaOCl diluted in water, in a 1400 cc container; type: cell-based; details: 5 mL 6.0% NaOCl + 50 mL water, in 1400 cc
Experimental: First, the recommended concentration of HOCl for sanitization of surfaces according to the prior art is calculated. Referring to the label of Ultra Chlorox® brand of sodium hypochlorite and noticing that a recommended concentration of NaOCl for mold and mildew stain removal is 3⁄4 cup Ultra Chlorox® plus one gallon of water. Ultra Chlorox® contains 6.00% NaOCl per the label. […] For the mold remediation studies, 5 mL of 6.0% NaOCl was mixed with 50 mL of water, acidified and was placed in a container with a volume of 1400 cc. • 5 mL of 6.0% NaOCl=0.30 g NaOCl • Assuming all of the NaOCl is converted to HOCl: • 0.30 g NaOCl=(0.30 g NaOCl)(52.5 g HOCl)/(74.5 g NaOCl)=0.21 g HOCl This quantity of HOCl is diluted to 1400 cc. Therefore, the maximum concentration of HOCl gas in the container studied is: • 0.21 g HOCl/1400 cc=15×10^-5 g HOCl/cc […]

germs on surfaces [1] = experiment: Label-recommended hypochlorite concentration for sanitization of surfaces (Ultra Clorox label)
mold and mildew stain = experiment: Label-recommended hypochlorite concentration for mold and mildew stain removal (Ultra Chlorox label)
Experimental: First, the recommended concentration of HOCl for sanitization of surfaces according to the prior art is calculated. Referring to the label of Ultra Chlorox® brand of sodium hypochlorite and noticing that a recommended concentration of NaOCl for mold and mildew stain removal is 3⁄4 cup Ultra Chlorox® plus one gallon of water. Ultra Chlorox® contains 6.00% NaOCl per the label. […] For the mold remediation studies, 5 mL of 6.0% NaOCl was mixed with 50 mL of water, acidified and was placed in a container with a volume of 1400 cc. • 5 mL of 6.0% NaOCl=0.30 g NaOCl • Assuming all of the NaOCl is converted to HOCl: • 0.30 g NaOCl=(0.30 g NaOCl)(52.5 g HOCl)/(74.5 g NaOCl)=0.21 g HOCl This quantity of HOCl is diluted to 1400 cc. Therefore, the maximum concentration of HOCl gas in the container studied is: • 0.21 g HOCl/1400 cc=15×10^-5 g HOCl/cc

mold colonies = experiment: Cidal action of controlled hypochlorous acid vapor on mold colonies (general statements); type: cell-based
[2] = cited from earlier work
germs on surfaces [3] = details: cited from earlier work

OCl [hypochlorous acid]
maximum concentration of HOCl gas in the container found to kill mold (mold): 3.02×10^−6 g HOCl/cc | maximum concentration of HOCl gas in the container found to kill mold and remove stains (mold and mold stains): 15×10^−5 g HOCl/cc | equivalent concentration of HOCl necessary to sanitize per manufacturer recommendation (germs on surfaces [1]; calculated from 200 ppm NaOCl, liquid): 1.41×10^−4 g HOCL/cc | Conc. of HOCl equivalent to the recommended stain removal solution (mold and mildew stain; all NaOCl assumed converted to HOCl): 0.0019 g HOCl/cc | time to completely eradicate even the most refractory of mold colonies (mold colonies; hypochlorous acid vapors generated and controlled as described): ≤ 24 h | hypochlorous acid concentration in the air that must be exceeded for effective cidal action on mold-contaminated materials (mold colonies; in air): exceed 3×10^−7 grams/cubic centimeter | % as HOCl ([2]; pH 5.0): 100% | % as HOCl ([2]; pH 6.0): 96% | % as HOCl ([2]; pH 7.0): 72% | % as HOCl ([2]; pH 7.2): 66% | % as HOCl ([2]; pH 7.5): 48% | % as HOCl ([2]; pH 7.8): 33% | % as HOCl ([2]; pH 8.0): 22%

OCl [sodium hypochlorite, reference compound]
recommended sanitizing concentration expressed by volume (germs on surfaces [1]; corresponds to 200 ppm aqueous solution): 200×10^−6 grams/cc | NaOCl conc. recommended by Ultra Chlorox for mold and mildew stain removal (mold and mildew stain; ¾ cup Ultra Chlorox (6.00% NaOCl) plus one gallon of water): 0.0027 g/cc | recommended concentration for killing germs on surfaces / sanitation (germs on surfaces [3]): 200 ppm

hypochlorite ion [OCl—]
% as OCl— ([2]; pH 5.0): 0% | % as OCl— ([2]; pH 6.0): 4% | % as OCl— ([2]; pH 7.0): 28% | % as OCl— ([2]; pH 7.2): 34% | % as OCl— ([2]; pH 7.5): 52% | % as OCl— ([2]; pH 7.8): 67% | % as OCl— ([2]; pH 8.0): 78%
